Source: US20260021078A1, “COMPOSITIONS AND METHODS FOR THE TREATMENT OR PREVENTION OF PULMONARY HYPERTENSION” (VIVUS LLC, priority 2015, published 2026)
Like-named read-outs stand apart in the source and are kept apart here.

Key:
[1] = test system: BMP response element (BRE) from the Id1 promoter fused to luciferase (BRE-luc) in C2C12 mouse myoblastoma reporter cell line; test: BRE-luc BMP signaling reporter assay in C2C12 cells; assay type: cell-based
Experimental: The activation of the BMP pathway was measured by luminescence. […] Thus, ascomycin activates BMPR2 signaling, and can be used for the prevention or treatment of diseases associated with decreased BMPR2 signaling, such as pulmonary arterial hypertension (PAH).

rats = details: 14-day, cited from earlier work
[2] = test system: patients with pulmonary hypertension (WHO Group I PAH); test: Clinical study in patients with pulmonary arterial hypertension, Example 3; assay type: in vivo, human
Text: Patients are invited to participate in this study because they have pulmonary hypertension (PH) and are currently treated with one or multiple drugs for PH such as PDE-5 inhibitors (sildenafil, tadalafil), prostacyclins (Flolan, Remodulin, Iloprost) and/or the endothelin antagonist Ambrisentan. This study is open to male or female subjects, 18-70 years of age, with pulmonary hypertension. The Inclusion and Exclusion criteria used are below:
• 1. Age ≥18 and <70 years • 2. Diagnosis of WHO Group I Pulmonary Arterial Hypertension (PAH) (Idiopathic (I)PAH, Heritable PAH (including Hereditary Hemorrhagic Telangiectasia), Associated (A)PAH (including collagen vascular disorders, drugs+toxins exposure, congenital heart disease, and portopulmonary disease). • 3. Previous Right Heart Catheterization (RHC) that documented: • a. Mean PAP≥25 mmHg. • b. Pulmonary capillary wedge pressure<15 mmHg. • c. Pulmonary Vascular Resistance≥3.0 Wood units or 240 dynes/sec/cm5 • 5. All NYHA/WHO functional classes. • 6. Willingness of female subjects to use birth control, or be post-menopausal, or status post hysterectomy.
• 1. WHO Group II-V Pulmonary Hypertension. • 2. Current or prior experimental PAH treatments within the last 6 months (including but not limited to tyrosine kinase inhibitors, rho-kinase inhibitors, or cGMP modulators). • 3. […]

[3] = assay/target not stated; cited from earlier work
[4] = test system: SuHx rat model of pulmonary arterial hypertension; test: Sugen 5416 plus chronic hypoxia (SuHx) rat model of PAH, Example 1; assay type: in vivo
Text: The purpose of this study was to establish pulmonary arterial hypertension (PAH) in rats by induction with Sugen 5416, a vascular endothelial growth factor (VEGF) inhibitor, plus chronic hypoxia (SuHx) in order to evaluate and compare the efficacy of tacrolimus and ascomycin for the treatment of PAH in the SuHx rat model. The assay is designed to measure the pulmonary and systemic arterial blood pressures related to PAH in the anaesthetized SuHx rat induced with a single subcutaneous dose of Sugen 5416, combined with an induction period of chronic hypoxia.
Male Sprague Dawley rats (Charles River Laboratories) weighing between 200 and 250 g at the time of their enrollment in the study were the test subjects for this study. The animals were assigned to groups by the Study Director in order to evenly distribute the ranges of body weights throughout all treatment groups. Animals in the test groups (n=10 in each group) received one subcutaneous injection of 20 mg/kg of SU5416 on Day 0 and were returned to their respective cages. These rats were placed in cages in which the controlled airflow (ventilated cage system) was adjusted to deliver a FiO2 equivalent to 0.10 (10%) using a mixture of nitrogen and ambient air, for a period of 3 weeks. Animals in the control group (n=5) remained in cages exposed to ambient oxygen levels.
On day 21, animals in the test groups were implanted with osmotic pumps filled with the vehicle alone (negative control), or with the appropriate concentration of tacrolimus (FK506) or ascomycin (FK520) to deliver 0.05 mg/kg/day of tacrolimus, 0.05 mg/kg/day of ascomycin, or 0.15 mg/kg/day of ascomycin for a period of three weeks. At the end of the study, the rats were anaesthetized and hemodynamic data was obtained. […] Cardiac output was lower after administration of Sugen5416 and hyposia, and increased with ascomycin treatment.

[5] = test system: popliteal lymph node hyperplasia; details: popliteal lymph node hyperplasia assay; lower potency than tacrolimus; cited from earlier work
[6] = test system: SuHx rat model of pulmonary arterial hypertension; test: SuHx rat model of PAH with 3 weeks normoxia before treatment, Example 2; assay type: in vivo
Experimental: A second study was conducted as described in Example 1, except the rats injected with Sugen 5416 and placed in hypoxia for 3 weeks were returned to normoxia for three weeks, and then treated for three weeks. The rats were then implanted with s.c. osmotic pumps delivering vehicle (negative control), 0.05 mg/kg/day tacrolimus (FK506), or 0.15 mg/kg/day, 1.0 mg/kg/day, 3.0 mg/kg/day ascomycin (FK520). Rats that were not treated with Sugen 5416 and remained under normoxia served as control. There were 5 rats in the control group, and 10 rats in each treated group. At the end of the study, the rats were anaesthetized and hemodynamic data was obtained. […] The left lobes of the lungs were harvested from every rat, fixed with 10% formalin, sliced at 5 μm thickness, mounted and stained with Movat staining. […] Of particular significance in SuHx model is the rare plexiform lesions (label 4 in FIG. 3A) that are neointimal hyperplasia blocking the small vessels resulting in increased pressure. With plexiform lesions and endothelial cells overgrowth, obliteration is formed.

[7] = 0.15 mg/kg/day by osmotic pump for three weeks, vs vehicle-treated SuHx rats
[8] = all three doses (0.15 [0.3 in b20], 1.0, 3.0 mg/kg/day) s.c. osmotic pump, three weeks
[9] = 0.05 mg/kg/day s.c. osmotic pump, three weeks

Row | Structure (SMILES) | IDI activation (luminescence relative to the EC-20 dose of BMP4) ([1]; with exogenous BMP4) | IDI activation (luminescence relative to the EC-20 dose of BMP4) ([1]; without exogenous BMP4) | nephrotoxicity (rats; continuous i.p. infusion at 10 mg/kg/day, rats on a normal diet) | nephrotoxicity (rats; continuous i.v. infusion up to 6 mg/kg/day, rats on a low salt diet) | nephrotoxicity (rats; daily oral administration up to 50 mg/kg/day, rats on a normal diet) | incidences of hypertension or cardiovascular events [2] | tolerability ([2]; all tested doses) | IC50 [3] | RVSP (FIG. 1B) [4, 7] | pulmonary arterial pressure (FIG. 1A) [4, 7] | Cardiac output ([4]; ascomycin treatment after Sugen5416 and hypoxia, dose not specified) | immunosuppressive potency compared with tacrolimus (fold lower) [5] | lung histopathology (Movat staining micrographs, FIG. 3B) ([6]; 1 mg/kg/day, left lung lobes, negative control showed all four grades of disease progression) | right ventricular systolic pressure [6, 8] | systolic pulmonary arterial pressure [6, 8] | right ventricular hypertrophy [6, 9] | right ventricular systolic pressure [6, 9]
1 | CC[C@@H]1/C=C(\C)C[C@H](C)C[C@H](OC)[C@H]2O[C@@](O)(C(=O)C(=O)N3CCCC[C@H]3C(=O)O[C@H](/C(C)=C/[C@@H]3CC[C@@H](O)[C@H](OC)C3)[C@H](C)[C@@H](O)CC1=O)[C@H](C)C[C@@H]2OC [ascomycin, (3S,4R,5S,8R,9E,12S,14S,15R,16S,18R, 19R,26aS)-8-ethyl-5,19-dihydroxy-3-{(1E)-1-[(1R,3R,4R)-4-hydroxy-3-methoxycyclohexyl]prop-1-en-2-yl}-14,16-dimethoxy-4,10,12,18-tetramethyl-5.6,8,11,12,13,14,15,16,17,18,19,24,25,26,26a-hexadecahydro-3H-15.19-epoxypyrido[2,1-c][1,4]oxazacyclotricosine-1,7,20,21(4H,23H)-tetrone] | 238% | 104% | not induced | not induced | not induced | no incidences | well tolerated | 550 pM | reversed the elevation | reversed the elevation | increased | 3 fold | mostly medial hypertrophy (label 1) and non-muscular vessels | decreases | decreases | – | –
2 | C=CC[C@@H]1/C=C(\C)C[C@H](C)C[C@H](OC)[C@H]2O[C@@](O)(C(=O)C(=O)N3CCCC[C@H]3C(=O)O[C@H](/C(C)=C/[C@@H]3CC[C@@H](O)[C@H](OC)C3)[C@H](C)[C@@H](O)CC1=O)[C@H](C)C[C@@H]2OC [tacrolimus, reference compound] | – | – | – | – | – | – | – | – | – | – | – | – | – | – | – | reduces the elevation | reduces the elevation
